# How the values were obtained:
# BaF3 = experiment: Antiproliferative activity against TEL-BMX transformed mouse BaF3 cells assessed as inhibition of cell proliferation
# CCRF-CEM = experiment: Antiproliferative activity against human CCRF-CEM cells assessed as cell growth inhibition incubated for 48 hrs by MTT assay; assay type: functional
# [1] = biological target: T1, Receptor-type tyrosine-protein kinase FLT3 (Homo sapiens, UniProt P36888); experiment: Inhibition of FLT3 (unknown origin)
# T1 sequence (P36888 whole entry): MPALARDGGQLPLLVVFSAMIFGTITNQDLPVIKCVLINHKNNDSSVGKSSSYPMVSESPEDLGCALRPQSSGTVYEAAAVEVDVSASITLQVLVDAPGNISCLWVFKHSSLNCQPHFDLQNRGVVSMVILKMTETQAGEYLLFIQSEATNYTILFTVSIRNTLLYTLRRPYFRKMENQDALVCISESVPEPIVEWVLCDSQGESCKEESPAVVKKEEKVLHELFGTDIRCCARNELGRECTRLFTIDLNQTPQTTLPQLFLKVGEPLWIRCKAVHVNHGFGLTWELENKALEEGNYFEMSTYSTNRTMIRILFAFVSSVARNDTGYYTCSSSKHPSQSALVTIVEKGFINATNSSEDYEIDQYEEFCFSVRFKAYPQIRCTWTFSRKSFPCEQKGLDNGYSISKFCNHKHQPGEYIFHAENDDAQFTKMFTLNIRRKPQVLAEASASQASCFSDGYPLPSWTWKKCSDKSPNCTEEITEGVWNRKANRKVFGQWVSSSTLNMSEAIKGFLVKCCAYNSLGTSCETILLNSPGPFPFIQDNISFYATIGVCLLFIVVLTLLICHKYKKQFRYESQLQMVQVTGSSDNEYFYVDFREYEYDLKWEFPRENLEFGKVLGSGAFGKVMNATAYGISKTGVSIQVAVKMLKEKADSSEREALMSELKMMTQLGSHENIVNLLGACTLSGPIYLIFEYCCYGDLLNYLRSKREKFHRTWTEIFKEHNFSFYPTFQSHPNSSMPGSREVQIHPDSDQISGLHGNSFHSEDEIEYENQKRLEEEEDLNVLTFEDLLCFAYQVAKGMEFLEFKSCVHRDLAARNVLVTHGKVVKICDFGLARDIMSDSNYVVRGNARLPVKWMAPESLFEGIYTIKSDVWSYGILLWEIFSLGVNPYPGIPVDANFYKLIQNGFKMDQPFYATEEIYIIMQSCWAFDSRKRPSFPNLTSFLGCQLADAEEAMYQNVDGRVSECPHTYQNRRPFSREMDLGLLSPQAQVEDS
Structure (SMILES),IC50 [1] [nM],further results
C=CC(=O)Nc1cc(-n2c(=O)ccc3cnc4ccc(-c5ccc(NS(C)(=O)=O)cc5)cc4c32)ccc1C,–,IC50 (BaF3): 25 nM
CCOC(=O)c1cnc2c(-c3nc4ccccc4s3)c(NC)nn2c1O,–,GI50 (CCRF-CEM): 16300 nM
Cc1oncc1C(=O)Nc1ccc2[nH]c(-c3cc(N4CCOCC4)cc(C(F)(F)F)c3)nc2c1,495,–

# The remaining molecules from weak to strong by IC50 [1], led by results:
IC50 [1] [nM],Structure (SMILES),further results
495,Cc1oncc1C(=O)Nc1ccc2[nH]c(-c3cc(-n4cncc4C)cc(C(F)(F)F)c3)nc2c1,–
495,Cc1oncc1C(=O)Nc1ccc2[nH]c(-c3cnn(-c4ccccc4)c3C(F)(F)F)nc2c1,–
495,Cc1oncc1C(=O)Nc1ccc2[nH]c(-c3cc(-n4ccnc4C)cc(C(F)(F)F)c3)nc2c1,–
495,Cc1cn(-c2cc(-c3nc4cc(NC(=O)c5cnoc5C)ccc4[nH]3)cc(C(F)(F)F)c2)cn1,–

# — ChEMBL document CHEMBL5620431, “2,4-Diaryl-pyrimido[1,2-a]benzimidazole derivatives as novel anticancer agents endowed with potent anti-leukemia activity: Synthesis, biological evaluation and kinase profiling” (Eur J Med Chem, 2023)
